Experimental data as given in patent US7598419B2, “Compounds for modulating cell proliferation” (HSC Research and Development Limited Partnership, priority 2004, dated 2009).

Tests used:
normal bone marrow cells = test: CFU-GEMM assay: normal bone marrow differentiation in culture; type: cell-based, human
Procedure: (§1) The CFU-GEMM assay was performed according to Fauser and Messner (1978, Blood, 52(6) 143-8) and Messner and Fausser (1980, Blut, 41(5) 327-33) with some variations. In brief, heparinized bone marrow cells were layered over Percoll (1.077 gm/ml) (Pharmacia Fine Chemical, Piscataway N.J.) and centrifuged at 400 g at 4° C. for 10 minutes to remove neutrophils and RBCs. The fractionated BM cells at 2×10^5 cells/ml were cultured in IMDM (OCI, Toronto) containing 0.9% (vol/vol) methylcellulose supplementd with 30% FCS (Cansera Rexdale, ON.) or normal human plasma, a cocktail of cytokines containing G-CSF (10 ng/ml, Amgen), IL-3 (40 U/ml, Immunex), MGF (50 ng/ml, Immunex), Erythropoietin (2 u/ml, Epprex) or TPO (10 ng/ml, Amgen), 5×10^−5M β-2-mercaptoethanol and the specified concentration of CR4. The culture mixture was plated in 1 ml volumes into 35 mm petri dishes and incubated at 37° C., 5% CO2 in a humidified atmosphere. All cultures were evaluated at 14 days for the number of BFU-E colonies (defined as aggregates of more than 500 hemoglobinized cells or, 3 or more erythroid subcolonies), CFU-GM colonies (defined as granulocyte or monocyte-macrophage cells or both), CFU-Meg colonies (comprising 4 or more megakaryocytes) and CFU-GEMM colonies (a mixed population comprising of all elements).
as §1, with “1243-8)” for “143-8)”, “concentrations” for “concentration”, “CR19.” for “CR4.”, “hemaglobinized” for “hemoglobinized”, “subcolonies) and CFU-C” for “subcolonies), CFU-GM”, “both).” for “both), CFU-Meg colonies (comprising 4 or more megakaryocytes) and CFU-GEMM colonies (a mixed population comprising of all elements).”
as §1, with “1243-8)” for “143-8)”, “variations (British Journal of Haematology, 1992, 80, p 40-48).” for “variations.”, “test compound.” for “CR4.”, “CO2,” for “CO2”, “subcolonies) and CFU-C” for “subcolonies), CFU-GM”, “both).” for “both), CFU-Meg colonies (comprising 4 or more megakaryocytes) and CFU-GEMM colonies (a mixed population comprising of all elements).”

[1] = system: OCI-AML-3 acute myeloid leukemia cells; test: Colony assay of OCI-AML-3 cells in culture; type: cell-based; settings: colonies at 5-6 days; FIG. 4
Procedure: OCI-AML-3 cells were plated in 35 mm petri dishes (Nunc, Gibco) in 1 ml volumes at a density of 3.3×10^3 cells/ml, in the absence of exogenous growth factors, containing alpha MEM plus 20% FCS (Cansera, Rexdale Ont.), and 0.9% (vol/vol) methylcellulose (Fluka, Switzerland) and the indicated concentrations of CR4. Cell cultures were incubated in a humidified atmosphere at 37° C. with 5% CO2. Colonies containing more than 20 cells were scored, using an inverted microscope, at 5-6 days.

[2] = system: OCI-AML-3 acute myeloid leukemia cells; test: In vitro purging of OCI-AML-3 cells; type: cell-based; settings: 2.5-5 hours exposure, FIG. 17
Procedure: For the purging assay, the cells were resuspended in complete medium with or without CR4 as indicated and incubated at 37° C., 5% CO2 for 0-5 hours. Cells were then washed thoroughly with medium to remove CR4, resuspended and plated in 1 ml volumes at 5×10^3 cells/ml, in the absence of exogenous growth factors, into 35 mm petri dishes (Nunc, Gibco) containing alpha MEM (Gibco) plus 10% FCS (Cansera Rexdale, ON.) in 0.9% (vol/vol) methylcellulose (Fluka, Switzerland). Cultures were set at 37° C., 5% CO2 in a humidified atmosphere. Colonies consisting of more than 20 cells were counted at 5 days or earlier using an inverted microscope.

OCI-LY2 lymphoma cells = test: Colony assay of OCI-LY2 cells in culture; type: cell-based; settings: 120 h, colonies at 5 days, FIG. 7, read-out: inhibition of OCI-LY2 cell proliferation and survival
Procedure: OCI-LY2 cells were plated in 1 ml volumes, in the absence of exogenous growth factors, into 35 mm petri dishes (Nunc, Gibco) containing IMDM (OCI, Toronto) plus 20% human cord blood plasma in 0.9% (vol/vol) methylcellulose (Fluka, Switzerland) and the indicated doses of CR4. Cultures were set at 37° C., 5% CO2 in a humidified atmosphere. Colonies consisting of more than 20 cells were counted at 5 days or earlier using an inverted microscope.

[3] = system: Philadelphia positive ALL, AML and lymphoma; test: High dose ex vivo / in vitro purging assays (summary); type: cell-based

## N#C/C(=C\C=C\c1ccc(O)c(O)c1)C(=O)NCc1ccccc1 [CR4, (E,E)-2-(Benzylaminocarbonyl)-3-(3,4-dihydroxystyryl)acrylonitrile]
Normal bone marrow cells; 10 μM, 14 days, FIG. 1
  BFU-E colony formation: some inhibition
  CFU-GM colony numbers: significantly stimulated
Normal bone marrow cells; concentrations equivalent to those inhibiting the cancer cells of the same example
  effect upon normal cells at equivalent concentrations: no effect
Normal bone marrow cells; doses up to 5 μM, colonies at 14 days, FIG. 1
  toxicity upon normal bone marrow: negligible toxicity
Normal bone marrow cells; low nanomolar doses, long term exposure
  normal cell growth and differentiation: unaffected
Normal bone marrow cells; normal cells incubated in the presence of compound
  concentrations until which minimal toxicity was seen in normal cells: 10 to 20 µM
[1]
  concentrations effecting complete inhibition of AML-3 cell proliferation and survival: 300 to 600 nM
[2]; 25 μM
  killing of OCI-AML-3 cells after purging: significant killing
[2]; 50 μM
  killing of OCI-AML-3 cells after purging: significant killing
OCI-LY2 lymphoma cells
  inhibition at 2.5 µM: 90%
[3]
  effectiveness as ex vivo purging agents: effective
[3]; 25-50 μM, 2.5 to 5 hour exposure time
  inhibition of growth in in vitro purging assays: > 90%
